Target: Hsp90 such as brain Hsp90
Assay: EC50 for binding to Hsp90 such as brain Hsp90
Conditions: concentration yielding half-maximal binding to Hsp90 such as brain Hsp90, or halving binding in a competition assay
Description: Brain uptake may be indicative of binding of the epichaperome inhibitor to Hsp90 and preferably to brain Hsp90. Such binding assays may be carried out as described in published PCT application WO2008/005937.
BBB-permeable epichaperome inhibitors to be used in the methods provided herein may be further characterized by their EC50 for binding to Hsp90 such as brain Hsp90. (EC50, in this context, refers to the concentration of the inhibitor that yields half-maximal binding of the inhibitor to Hsp90 such as brain Hsp90, or alternatively if the measurement is performed in a competition assay it is the concentration of inhibitor at which the binding to Hsp90 is reduced by half.) Certain inhibitors may have an EC50 of 100 nM or less, including about 90 nM, about 80 nM, about 85 nM, about 70 nM, about 60 nM, about 50 nM, about 40 nM, about 30 nM, about 20 nM, about 10 nM, about 9 nM, about 8 nM, about 7 nM, about 6 nM, about 5 nM, about 4 nM, about 3 nM, about 2 nM, or about 1 nM. The EC50 might range from 0.1 to 10 nM, from 0.1 to 9 nM, from 0.1 to 8 nM, from 0.1 to 7 nM, from 0.1 to 6 nM, or from 0.1 to 5 nM. The EC50 might range from 0.1 to 20 nM, from 0.1 to 18 nM, from 0.1 to 15 nM, from 0.1 to 12 nM, or from 0.1 to 10 nM. In some instances, certain inhibitors have an EC50 of about 5-7 nM. […] In other instances, certain inhibitors have an EC50 of about 80-90 nM.

EC50: 6.9 nM
SMILES: CC(C)(C)CNCCn1c(Sc2cc3c(cc2I)OCO3)nc2c(N)ncnc21 [Compound 1]

Reference: US20210161902A1, “EPICHAPEROME INHIBITOR THERAPY FOR TRAUMATIC BRAIN INJURY AND SEQUELAE THEREOF” (Samus Therapeutics, Inc, priority 2017, published 2021)
